# Results from PubChem BioAssay (NCI).
# Where “and” joins values, the source holds several entries; their conditions need not be identical. Equal entries are not always repeated.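 How tested: cells in 96-well plates exposed to compound for 48 hours at five concentrations. GI50 marks 50% less growth. At the TGI there is no net growth.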
# Tests used:
# Assay in all cases: inhibition of tumour cell growth, NCI panel, 48 h
# [1] = system: 786-0 renal
# [2] = system: A498 renal
# [3] = system: A549 NSCLC
# [4] = system: ACHN renal
# [5] = system: BT-549 breast
# [6] = system: CAKI-1 renal
# [7] = system: CCRF-CEM leukemia
# [8] = system: COLO 205 colon
# [9] = system: DU-145 prostate
# [10] = system: EKVX NSCLC
# [11] = system: HCC-2998 colon
# [12] = system: HCT-116 colon
# [13] = system: HCT-15 colon
# [14] = system: HOP-62 NSCLC
# [15] = system: HOP-92 NSCLC
# [16] = system: HS 578T breast
# [17] = system: HT29 colon
# [18] = system: IGROV1 ovarian
# [19] = system: K-562 leukemia
# [20] = system: KM12 colon
# [21] = system: LOX IMVI melanoma
# [22] = system: M14 melanoma
# [23] = system: MALME-3M melanoma
# [24] = system: MCF7 breast
# [25] = system: MDA-MB-231 breast
# [26] = system: MDA-MB-435
# [27] = system: MOLT-4 leukemia
# [28] = system: NCI-H226 lung
# [29] = system: NCI-H23 lung
# [30] = system: NCI-H460 lung
# [31] = system: NCI-H522 lung
# [32] = system: OVCAR-3 ovarian
# [33] = system: OVCAR-4 ovarian
# [34] = system: OVCAR-5 ovarian
# [35] = system: OVCAR-8 ovarian
# [36] = system: PC-3 prostate
# [37] = system: RPMI-8226 leukemia
# [38] = system: RXF 393 renal
# [39] = system: SF-268 CNS
# [40] = system: SF-295 CNS
# [41] = system: SF-539 CNS
# [42] = system: SK-MEL-2 melanoma
# [43] = system: SK-MEL-28 melanoma
# [44] = system: SK-MEL-5 melanoma
# [45] = system: SK-OV-3 ovarian
# [46] = system: SN12C renal
# [47] = system: SNB-19 CNS
# [48] = system: SNB-75 CNS
# [49] = system: SR leukemia
# [50] = system: SW-620 colon
# [51] = system: T-47D breast
# [52] = system: TK-10 renal
# [53] = system: U251 CNS
# [54] = system: UACC-257 melanoma
# [55] = system: UACC-62 melanoma
# [56] = system: UO-31 renal
# [57] = system: HL-60(TB) leukemia
# [58] = system: NCI/ADR-RES ovarian
smiles,measurement,setting,value
O=C(/C=C/C12c3ccccc3C(c3ccccc31)C1C(=O)NC(=O)C12)c1ccc(Cl)cc1Cl (stereo unspecified),GI50,[1],1700 nM
same,TGI,[1],3220 nM
same,GI50,[2],1820 nM
same,TGI,[2],3300 nM
same,GI50,[3],2230 nM
same,TGI,[3],6030 nM
same,GI50,[4],1760 nM
same,TGI,[4],3150 nM
same,GI50,[5],1660 nM
same,TGI,[5],3270 nM
same,GI50,[6],1570 nM
same,TGI,[6],3050 nM
same,GI50,[7],1890 nM
same,TGI,[7],7230 nM
same,GI50,[8],2200 nM
same,TGI,[8],4240 nM
same,GI50,[9],1830 nM
same,TGI,[9],3430 nM
same,GI50,[10],1860 nM
same,TGI,[10],4160 nM
same,GI50,[11],1810 nM
same,TGI,[11],3410 nM
same,GI50,[12],1610 nM
same,TGI,[12],3050 nM
same,GI50,[13],1900 nM
same,TGI,[13],4570 nM
same,GI50,[14],2060 nM
same,TGI,[14],4710 nM
same,GI50,[15],1500 nM
same,TGI,[15],3300 nM
same,GI50,[16],2760 nM
same,TGI,[16],7010 nM
same,GI50,[17],2020 nM
same,TGI,[17],4410 nM
same,GI50,[18],1970 nM
same,TGI,[18],4270 nM
same,GI50,[19],2570 nM
same,TGI,[19],10900 nM
same,GI50,[20],1760 nM
same,TGI,[20],3430 nM
same,GI50,[21],1880 nM
same,TGI,[21],3570 nM
same,GI50,[22],1830 nM
same,TGI,[22],3540 nM
same,GI50,[23],1710 nM
same,TGI,[23],3120 nM
same,GI50,[24],1720 nM
same,TGI,[24],3790 nM
same,GI50,[25],2310 nM
same,TGI,[25],5820 nM
same,GI50,[26],1980 nM
same,TGI,[26],4060 nM
same,GI50,[27],1770 nM
same,TGI,[27],5580 nM
same,GI50,[28],2140 nM
same,TGI,[28],5910 nM
same,GI50,[29],2020 nM
same,TGI,[29],4100 nM
same,GI50,[30],1850 nM
same,TGI,[30],3820 nM
same,GI50,[31],1690 nM
same,TGI,[31],3410 nM
same,GI50,[32],1710 nM
same,TGI,[32],3160 nM
same,GI50,[33],1860 nM
same,TGI,[33],3820 nM
same,GI50,[34],1720 nM
same,TGI,[34],3300 nM
same,GI50,[35],1880 nM
same,TGI,[35],3980 nM
same,GI50,[36],1550 nM
same,TGI,[36],3080 nM
same,GI50,[37],1680 nM
same,TGI,[37],4410 nM
same,GI50,[38],1730 nM
same,TGI,[38],3220 nM
same,GI50,[39],1790 nM
same,TGI,[39],3440 nM
same,GI50,[40],1780 nM
same,TGI,[40],3630 nM
same,GI50,[41],1590 nM
same,TGI,[41],2960 nM
same,GI50,[42],1900 nM
same,TGI,[42],3620 nM
same,GI50,[43],1780 nM
same,TGI,[43],3270 nM
same,GI50,[44],1710 nM
same,TGI,[44],3340 nM
same,GI50,[45],2400 nM
same,TGI,[45],6710 nM
same,GI50,[46],1770 nM
same,TGI,[46],3290 nM
same,GI50,[47],1620 nM
same,TGI,[47],3030 nM
same,GI50,[48],1640 nM
same,TGI,[48],3080 nM
same,GI50,[49],1590 nM
same,TGI,[49],4680 nM
same,GI50,[50],2190 nM
same,TGI,[50],4580 nM
same,GI50,[51],2480 nM
same,TGI,[51],9590 nM
same,GI50,[52],1900 nM
same,TGI,[52],3500 nM
same,GI50,[53],1680 nM
same,TGI,[53],3060 nM
same,GI50,[54],1760 nM
same,TGI,[54],3460 nM
same,GI50,[55],1670 nM
same,TGI,[55],3180 nM
same,GI50,[56],1400 nM
same,TGI,[56],2710 nM
CN(C)CCNC(=O)c1ccc(NCCCN(C)CCCNc2ccc(C(=O)NCCN(C)C)c3[nH]c4ccccc4c(=O)c23)c2c(=O)c3ccccc3[nH]c12,TGI,[1],312 nM
same,TGI,[2],502 nM
same,TGI,[3],313 nM
same,TGI,[4],1710 nM
same,TGI,[5],1630 nM
same,TGI,[6],2590 nM
same,TGI,[7],406 nM
same,TGI,[8],294 nM
same,TGI,[10],674 nM
same,TGI,[11],177 nM
same,TGI,[12],205 nM
same,TGI,[13],4520 nM
same,TGI,[57],659 nM
same,TGI,[14],459 nM
same,TGI,[15],3820 nM
same,TGI,[17],236 nM
same,TGI,[18],2070 nM
same,TGI,[20],627 nM
same,TGI,[21],179 nM
same,TGI,[22],1460 nM
same,TGI,[23],302 nM
same,TGI,[24],440 nM
same,TGI,[25],309 nM
same,TGI,[26],194 nM
same,TGI,[27],1090 nM
same,TGI,[28],609 nM
same,TGI,[29],315 nM
same,TGI,[30],120 nM
same,TGI,[31],143 nM
same,TGI,[58],16000 nM
same,TGI,[32],694 nM
same,TGI,[33],247 nM
same,TGI,[34],647 nM
same,TGI,[35],1140 nM
same,TGI,[36],331 nM
same,TGI,[37],419 nM
same,TGI,[38],1150 nM
same,TGI,[39],271 nM
same,TGI,[40],1310 nM
same,TGI,[41],2240 nM
same,TGI,[42],262 nM
same,TGI,[43],1230 nM
same,TGI,[44],1500 nM
same,TGI,[45],427 nM
same,TGI,[46],397 nM
same,TGI,[47],419 nM
same,TGI,[48],84.4 nM
same,TGI,[49],532 nM
same,TGI,[51],1850 nM
same,TGI,[52],1980 nM
same,TGI,[53],247 nM
same,TGI,[54],1260 nM
same,TGI,[55],353 nM
same,TGI,[56],1900 nM
CCOC(=O)c1[nH]c(Br)c(-c2ccc(OC)c(OC)c2)c1Br,TGI,[1],11700 nM
same,TGI,[2],194 nM
same,GI50,[3],56.4 nM
same,TGI,[3],23000 nM
same,GI50,[4],239 nM
same,TGI,[4],22600 nM
same,TGI,[5],3160 nM
same,GI50,[8],20 nM
same,TGI,[8],1070 nM
same,GI50,[9],15.5 nM
same,TGI,[9],4650 nM and 18300 nM
same,GI50,[10],10400 nM
same,TGI,[10],43300 nM
same,TGI,[12],13700 nM
same,GI50,[13],40 nM
same,TGI,[13],15400 nM
same,TGI,[57],1990 nM
same,GI50,[14],25.3 nM
same,TGI,[14],14800 nM
same,GI50,[17],25.8 nM
same,TGI,[17],66.7 nM and 308 nM
same,GI50,[18],49.4 nM
same,TGI,[18],11900 nM
same,TGI,[19],12700 nM
same,GI50,[20],17.2 nM
same,TGI,[22],16000 nM
same,GI50,[24],338 nM
same,TGI,[24],17200 nM
same,GI50,[26],2.79 nM
same,TGI,[26],9.73 nM
same,TGI,[27],8590 nM
same,TGI,[28],1650 nM
same,GI50,[29],7830 nM
same,GI50,[30],19200 nM
same,TGI,[30],> 100000 nM
same,GI50,[31],32.8 nM
same,TGI,[31],349 nM
same,TGI,[58],> 100000 nM
same,GI50,[34],20300 nM
same,TGI,[34],63300 nM
same,GI50,[35],51.1 nM
same,TGI,[35],36800 nM
same,GI50,[36],11.2 nM
same,TGI,[36],23700 nM
same,TGI,[37],16600 nM
same,TGI,[38],42.4 nM
same,GI50,[39],1030 nM
same,TGI,[39],35700 nM
same,TGI,[40],35.6 nM
same,GI50,[41],11.6 nM
same,TGI,[41],42.8 nM and 12.8 nM
same,GI50,[42],15.2 nM
same,TGI,[42],20200 nM
same,TGI,[43],20300 nM
same,GI50,[44],33.9 nM
same,TGI,[44],4300 nM and 6500 nM
same,GI50,[46],1590 nM
same,TGI,[46],49400 nM
same,GI50,[47],13.7 nM
same,TGI,[47],17600 nM
same,TGI,[48],32800 nM
same,TGI,[49],13400 nM
same,TGI,[50],38100 nM
same,TGI,[51],72500 nM
same,TGI,[52],55200 nM
same,TGI,[53],1440 nM
same,GI50,[54],10000 nM
same,TGI,[54],22300 nM
same,TGI,[55],22000 nM
same,TGI,[56],9960 nM
